# Test results published in patent publication US8754242B2, “Herbicides” (Syngenta Crop Protection LLC, priority 2007, dated 2014).
# Tests used:
# Format in all cases: in vivo
# [1] = test system: Alopecurus myosuroides (ALOMY); assay: Test Example 1 pre-emergence herbicidal activity; settings: rate 250 g/ha, evaluated 20 days later; for pest or weed control at 250 g/ha: Alopecurus myosuroides, 480 h, read-out: Pre-emergence activity ALOMY (100=total damage to plant; 0=no damage to plant)
# Method in brief: (§1)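 Once sown in standard soil, pots received an aqueous spray of the formulated active ingredient, either after one day or after ten days of controlled glasshouse growth. Plants then grew under optimum greenhouse conditions. Herbicidal effect was assessed visually 15 (post-emergence) or 20 (pre-emergence) days later, 100 meaning total plant damage.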
# Avena fatua (AVEFA) [2] = assay: Test Example 1 pre-emergence herbicidal activity; settings: rate 250 g/ha, evaluated 20 days later; for pest or weed control at 250 g/ha: Avena fatua, 480 h, read-out: Pre-emergence activity AVEFA (100=total damage to plant; 0=no damage to plant)
# Method in brief: as §1
# [3] = test system: Digitaria sanguinalis (DIGSA); assay: Test Example 1 pre-emergence herbicidal activity; settings: rate 250 g/ha, evaluated 20 days later; for pest or weed control at 250 g/ha: Digitaria sanguinalis, 480 h, read-out: Pre-emergence activity DIGSA (100=total damage to plant; 0=no damage to plant)
# Method in brief: as §1
# [4] = test system: Echinochloa crus-galli (ECHCG); assay: Test Example 1 pre-emergence herbicidal activity; settings: rate 250 g/ha, evaluated 20 days later; for pest or weed control at 250 g/ha: Echinochloa crus-galli, 480 h, read-out: Pre-emergence activity ECHCG (100=total damage to plant; 0=no damage to plant)
# Method in brief: as §1
# Lolium perenne (LOLPE) [5] = assay: Test Example 1 pre-emergence herbicidal activity; settings: rate 250 g/ha, evaluated 20 days later; for pest or weed control at 250 g/ha: Lolium perenne, 480 h, read-out: Pre-emergence activity LOLPE (100=total damage to plant; 0=no damage to plant)
# Method in brief: as §1
# Setaria faberi (SETFA) [6] = assay: Test Example 1 pre-emergence herbicidal activity; settings: rate 250 g/ha, evaluated 20 days later; for pest or weed control at 250 g/ha: Setaria faberi, 480 h, read-out: Pre-emergence activity SETFA (100=total damage to plant; 0=no damage to plant)
# Method in brief: as §1
# [7] = test system: Alopecurus myosuroides (ALOMY); assay: Test Example 1 post-emergence herbicidal activity; settings: rate 125 g/ha, evaluated 15 days later; for pest or weed control at 125 g/ha: 360 h, read-out: Post-emergence activity ALOMY (100=total damage to plant; 0=no damage to plant)
# Method in brief: as §1
# Avena fatua (AVEFA) [8] = assay: Test Example 1 post-emergence herbicidal activity; settings: rate 125 g/ha, evaluated 15 days later; for pest or weed control at 125 g/ha: 360 h, read-out: Post-emergence activity AVEFA (100=total damage to plant; 0=no damage to plant)
# Method in brief: as §1
# [9] = test system: Digitaria sanguinalis (DIGSA); assay: Test Example 1 post-emergence herbicidal activity; settings: rate 125 g/ha, evaluated 15 days later; for pest or weed control at 125 g/ha: 360 h, read-out: Post-emergence activity DIGSA (100=total damage to plant; 0=no damage to plant)
# Method in brief: as §1
# [10] = test system: Echinochloa crus-galli (ECHCG); assay: Test Example 1 post-emergence herbicidal activity; settings: rate 125 g/ha, evaluated 15 days later; for pest or weed control at 125 g/ha: 360 h, read-out: Post-emergence activity ECHCG (100=total damage to plant; 0=no damage to plant)
# Method in brief: as §1
# Lolium perenne (LOLPE) [11] = assay: Test Example 1 post-emergence herbicidal activity; settings: rate 125 g/ha, evaluated 15 days later; for pest or weed control at 125 g/ha: 360 h, read-out: Post-emergence activity LOLPE (100=total damage to plant; 0=no damage to plant)
# Method in brief: as §1
# Setaria faberi (SETFA) [12] = assay: Test Example 1 post-emergence herbicidal activity; settings: rate 125 g/ha, evaluated 15 days later; for pest or weed control at 125 g/ha: 360 h, read-out: Post-emergence activity SETFA (100=total damage to plant; 0=no damage to plant)
# Method in brief: as §1
Structure (SMILES),pest or weed control at 250 g/ha [1] [%],pest or weed control at 250 g/ha (Avena fatua (AVEFA) [2]) [%],pest or weed control at 250 g/ha [3] [%],pest or weed control at 250 g/ha [4] [%],pest or weed control at 250 g/ha (Lolium perenne (LOLPE) [5]) [%],pest or weed control at 250 g/ha (Setaria faberi (SETFA) [6]) [%],pest or weed control at 125 g/ha [7] [%],pest or weed control at 125 g/ha (Avena fatua (AVEFA) [8]) [%],pest or weed control at 125 g/ha [9] [%],pest or weed control at 125 g/ha [10] [%],pest or weed control at 125 g/ha (Lolium perenne (LOLPE) [11]) [%],pest or weed control at 125 g/ha (Setaria faberi (SETFA) [12]) [%],also measured
CCc1cc(C)cc(CC)c1C1=C(O)[C@H]2[C@@H](C1=O)[C@@H]1CC[C@@]2(COCC#N)O1 [Example T27],70,70,90,100,70,100,100,90,100,100,80,100,
Cc1cc(C)c(C2=C(O)[C@H]3[C@@H](C2=O)[C@]2(C)C=C[C@@]3(C)O2)c(C)c1 [Example T34],70,30,60,40,60,80,40,30,80,80,30,80,
CC[C@]12C=C[C@H](O1)[C@@H]1C(=O)C(c3c(C)cc(C)cc3C)=C(O)[C@@H]12 [Example T40],50,60,60,40,60,40,40,30,70,70,30,70,
Cc1cc(C)c(C2=C(O)[C@@H]3[C@@H]4O[C@@H]([C@H](Br)[C@H]4Br)[C@@H]3C2=O)c(C)c1 [Example T46],10,0,20,70,30,30,0,0,0,80,0,60,
COC[C@H]1C[C@@H]2O[C@H]1[C@H]1C(O)=C(c3c(C)cc(C)cc3C)C(=O)[C@H]12 [Example T47],100,80,70,100,100,80,100,90,60,100,90,70,
Cc1cc(C)c(C2=C(O)[C@H]3[C@@H](C2=O)[C@@H]2CC[C@@]3(C)O2)c(C)c1 [Example T48],,,,,,,,,,,,,Pre-emergence activity ALOMY (100=total damage to plant; 0=no damage to plant) [1]: 100; Pre-emergence activity AVEFA (100=total damage to plant; 0=no damage to plant) (Avena fatua (AVEFA) [2]): 80; Pre-emergence activity DIGSA (100=total damage to plant; 0=no damage to plant) [3]: 100; Pre-emergence activity ECHCG (100=total damage to plant; 0=no damage to plant) [4]: 100; Pre-emergence activity LOLPE (100=total damage to plant; 0=no damage to plant) (Lolium perenne (LOLPE) [5]): 100; Pre-emergence activity SETFA (100=total damage to plant; 0=no damage to plant) (Setaria faberi (SETFA) [6]): 100; Post-emergence activity ALOMY (100=total damage to plant; 0=no damage to plant) [7]: 80; Post-emergence activity AVEFA (100=total damage to plant; 0=no damage to plant) (Avena fatua (AVEFA) [8]): 70; Post-emergence activity DIGSA (100=total damage to plant; 0=no damage to plant) [9]: 100; Post-emergence activity ECHCG (100=total damage to plant; 0=no damage to plant) [10]: 100; Post-emergence activity LOLPE (100=total damage to plant; 0=no damage to plant) (Lolium perenne (LOLPE) [11]): 70; Post-emergence activity SETFA (100=total damage to plant; 0=no damage to plant) (Setaria faberi (SETFA) [12]): 90
Cc1cc(C)c(C2=C(O)[C@H]3[C@@H](C2=O)[C@@H]2CC[C@@]3(CO)O2)c(C)c1 [Example T49],80,70,10,80,100,20,80,80,70,80,70,50,
CC[C@]12CC[C@H](O1)[C@@H]1C(=O)C(c3c(C)cc(C)cc3C)=C(O)[C@@H]12 [Example T52],40,30,90,100,100,90,60,70,80,100,70,80,
Cc1cc(C)c(C2=C(O)[C@@H]3[C@@H]4O[C@@H](C[C@H]4c4ccccc4)[C@@H]3C2=O)c(C)c1 [Example T56],100,60,70,100,100,70,100,50,70,100,80,60,
Cc1cc(C)c(C2=C(O)[C@H]3[C@@H](C2=O)[C@@H]2C=C(CO)[C@@]3(C)O2)c(C)c1 [Example T58],0,10,0,60,0,0,0,10,40,30,0,30,
CCC(=O)OC[C@]12C=C[C@H](O1)[C@@H]1C(=O)C(c3c(C)cc(C)cc3C)=C(O)[C@@H]12 [Example T59],10,20,50,30,30,40,50,40,80,80,0,70,
CC1=C2CCC(C)C[C@@]23O[C@@H]1C1C(=O)C(c2c(C)cc(C)cc2C)=C(O)C13 (stereo partly drawn) [Example T60],0,40,30,30,10,10,10,0,50,0,0,40,
Cc1cc(C)c(C2=C(O)C3C(C2=O)[C@@H]2CC(CO)[C@@]3(C)O2)c(C)c1 (stereo partly drawn) [Example T62],70,70,80,80,60,80,60,0,70,80,20,70,
